From patent publication US20250230193A1, “CYCLIC COMPOUND HAVING SELECTIVE KRAS INHIBITORY EFFECT ON HRAS AND NRAS” (CHUGAI SEIYAKU KABUSHIKI KAISHA, priority 2022, published 2025)

Columns and labels:
[1] = target: GDP-bound HRAS wild-type protein (Homo sapiens, UniProt P01112); assay: Binding to HRAS by surface plasmon resonance (SPR), Single Cycle Kinetics; settings: SPR; KD ratio class
[2] = target: GDP-bound NRAS wild-type protein (Homo sapiens, UniProt P01111); assay: Binding to NRAS by surface plasmon resonance (SPR), Single Cycle Kinetics; settings: SPR; KD ratio class
[3] = test system: human lung cancer strain NCI-H441; assay: cells; settings: NCI-H441, 96 h, read-out: NCI-H441 IC50 (nM)

GDP-bound HRAS wild-type protein, sequence (P01112 whole entry): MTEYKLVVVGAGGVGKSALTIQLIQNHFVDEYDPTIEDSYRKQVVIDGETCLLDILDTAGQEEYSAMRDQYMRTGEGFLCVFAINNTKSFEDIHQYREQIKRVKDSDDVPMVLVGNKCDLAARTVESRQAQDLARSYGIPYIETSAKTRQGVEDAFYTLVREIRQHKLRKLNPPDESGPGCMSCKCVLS
GDP-bound NRAS wild-type protein, sequence (P01111 whole entry): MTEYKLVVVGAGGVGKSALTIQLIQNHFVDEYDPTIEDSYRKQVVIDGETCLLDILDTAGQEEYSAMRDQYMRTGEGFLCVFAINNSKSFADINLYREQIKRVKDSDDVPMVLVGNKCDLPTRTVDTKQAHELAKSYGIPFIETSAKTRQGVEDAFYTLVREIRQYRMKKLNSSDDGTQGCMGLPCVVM

IC50 [3] | Structure (SMILES) | HRAS/KRAS (ratio of KD value for GDP-bound HRAS wild-type protein to KD value for KRAS) [1] | NRAS/KRAS (ratio of KD value for GDP-bound NRAS wild-type protein to KD value for KRAS) [2]
11.2 nM | CC[C@H](C)[C@@H]1NC(=O)[C@H](CC)N(C)C(=O)C[C@@H](C(=O)N2CCOCC2)N(C)C(=O)[C@H](C2CCCC2)N(C)C(=O)C2(CCCC2)NC(=O)[C@@H]2CCCN2C(=O)[C@H](CCc2cc(F)c(C(F)(F)F)c(F)c2)NC(=O)CN(C)C(=O)[C@H](Cc2ccc(C(F)(F)F)cc2)N2C[C@H](C)CC[C@@H](C2=O)N(C)C(=O)CN(C)C1=O [PP1383] | B (a compound having 3 or more and less than 10 is denoted as B) | B (a compound having 3 or more and less than 10 is denoted as B)
6.5 nM | CCO[C@@H]1C[C@H]2C(=O)NC3(CC(C)(C)C3)C(=O)N(C)[C@@H](C3CCCC3)C(=O)N(C)[C@H](C(=O)N(C)C)CC(=O)N(C)[C@@H](CC3CCCC3)C(=O)N[C@@H]([C@@H](C)CC)C(=O)N(C)CC(=O)N(C)[C@H]3C/C=C\CCN(C3=O)[C@@H](Cc3ccc(C(F)(F)F)cc3)C(=O)N(C)CC(=O)N[C@@H](CCc3ccc(C(F)(F)F)c(OC)c3)C(=O)N2C1 [PP1565] | B (a compound having 3 or more and less than 10 is denoted as B) | A (a compound having 10 or more and less than 20 is denoted as A)
309 nM | CCO[C@@H]1C[C@H]2C(=O)NC3(CCC3)C(=O)N(C)[C@@H](C3CCCC3)C(=O)N(C)[C@H](C(=O)N(C)C)CC(=O)N(C)[C@@H](CC3CC3)C(=O)N[C@@H]([C@@H](C)CC)C(=O)N(C)CC(=O)N(C)[C@H]3C/C=C\CCN(C3=O)[C@@H](Cc3ccc(F)cc3C)C(=O)N(C)CC(=O)N[C@@H](CCc3cc(F)c(Cl)c(F)c3)C(=O)N2C1 [PP1477] | B (a compound having 3 or more and less than 10 is denoted as B) | A (a compound having 10 or more and less than 20 is denoted as A)
32.9 nM | CCO[C@@H]1C[C@H]2C(=O)NC3(CCC3)C(=O)N(C)[C@@H](C3CCCC3)C(=O)N(C)[C@H](C(=O)N(C)C)CC(=O)N(C)[C@@H](CC(C)(C)C)C(=O)N[C@@H]([C@@H](C)CC)C(=O)N(C)CC(=O)N(C)[C@H]3C/C=C\CCN(C3=O)[C@@H](CC3CCC(F)(F)CC3)C(=O)N(C)CC(=O)N[C@@H](CCc3cc(F)c(C(F)(F)F)c(F)c3)C(=O)N2C1 [PP1460] | A (a compound having 10 or more and less than 20 is denoted as A) | A (a compound having 10 or more and less than 20 is denoted as A)
11.5 nM | CCO[C@@H]1C[C@H]2C(=O)NC3(CCC3)C(=O)N(C)[C@@H](C3CCCC3)C(=O)N(C)[C@H](C(=O)N3CCOCC3)CC(=O)N(C)[C@@H](CC)C(=O)N[C@@H]([C@@H](C)CC)C(=O)N3CC[C@H]3C(=O)N(C)[C@H]3CC[C@@H](C)CN(C3=O)[C@@H](Cc3ccc(C(F)(F)F)cc3)C(=O)N(C)CC(=O)N[C@@H](CCc3ccc(C(F)(F)F)c(Cl)c3)C(=O)N2C1 [PP1375] | B (a compound having 3 or more and less than 10 is denoted as B) | B (a compound having 3 or more and less than 10 is denoted as B)
10.8 nM | CC[C@H](C)[C@@H]1NC(=O)[C@H](CC)N(C)C(=O)C[C@@H](C(=O)N(C)C)N(C)C(=O)[C@H](C2CCCC2)N(C)C(=O)C2(CCCC2)NC(=O)[C@@H]2CCCN2C(=O)[C@H](CCc2ccc(C(F)(F)F)c(Cl)c2)NC(=O)CN(C)C(=O)[C@H](Cc2ccc(C(F)(F)F)cc2)N2C[C@H](C)CC[C@@H](C2=O)N(C)C(=O)CN(C)C1=O [PP1336] | B (a compound having 3 or more and less than 10 is denoted as B) | B (a compound having 3 or more and less than 10 is denoted as B)
49.7 nM | CCO[C@@H]1C[C@H]2C(=O)NC3(CCC3)C(=O)N(C)[C@@H](C(CC)CC)C(=O)N(C)[C@H](C(=O)N3CCOCC3)CC(=O)N(C)[C@@H](CC(C)C)C(=O)N[C@@H]([C@@H](C)CC)C(=O)N(C)CC(=O)N(C)[C@H]3C/C=C\CCN(C3=O)[C@@H](Cc3ccc(C(F)(F)F)cc3)C(=O)N(C)CC(=O)N[C@@H](CCc3cc(F)c(C(F)(F)F)c(F)c3)C(=O)N2C1 [PP1287] | A (a compound having 10 or more and less than 20 is denoted as A) | AA (a compound having 20 or more is denoted as AA)
98.7 nM | CCO[C@@H]1C[C@H]2C(=O)NC3(CCC3)C(=O)N(C)[C@@H](C3CCCC3)C(=O)N(C)[C@H](C(=O)N3CCOCC3)CC(=O)N(C)[C@@H](CC3CC3)C(=O)N[C@@H]([C@@H](C)CC)C(=O)N(C)CC(=O)N(C)[C@H]3C/C=C\CCN(C3=O)[C@@H](Cc3ccc(F)cc3C)C(=O)N(C)CC(=O)N[C@@H](CCc3cc(F)c(C(F)(F)F)c(F)c3)C(=O)N2C1 [PP1495] | B (a compound having 3 or more and less than 10 is denoted as B) | A (a compound having 10 or more and less than 20 is denoted as A)
2.7 nM | CCCC[C@H]1C(=O)N[C@@H]([C@@H](C)CC)C(=O)N(C)CC(=O)N(C)[C@H]2C/C=C\CCN(C2=O)[C@@H](Cc2ccc(C(F)(F)F)cc2)C(=O)N(C)CC(=O)N[C@@H](CCc2ccc(C(F)(F)F)c(OC)c2)C(=O)N2C[C@H](OCC)C[C@H]2C(=O)NC2(CC(C)(C)C2)C(=O)N(C)[C@@H](C2CCCC2)C(=O)N(C)[C@H](C(=O)N(C)C)CC(=O)N1C [PP1561] | B (a compound having 3 or more and less than 10 is denoted as B) | A (a compound having 10 or more and less than 20 is denoted as A)
4.2 nM | CC[C@H](C)[C@@H]1NC(=O)[C@H](CC)N(C)C(=O)C[C@@H](C(=O)N2CCOCC2)N(C)C(=O)[C@H](C2CCCC2)N(C)C(=O)C2(CCCC2)NC(=O)[C@@H]2CCCN2C(=O)[C@H](CCc2cc(F)c(C(F)(F)F)c(F)c2)NC(=O)CN(C)C(=O)[C@H](Cc2ccc(C(F)(F)F)cc2)N2C[C@H](C)[C@H](C)C[C@@H](C2=O)N(C)C(=O)CN(C)C1=O [PP1365] | B (a compound having 3 or more and less than 10 is denoted as B) | A (a compound having 10 or more and less than 20 is denoted as A)
575 nM | CCO[C@@H]1C[C@H]2C(=O)NC3(CCC3)C(=O)N(C)[C@@H](C(CC)CC)C(=O)N(C)[C@H](C)CC(=O)N(C)[C@@H](CC3CC3)C(=O)N[C@@H]([C@@H](C)CC)C(=O)N(C)CC(=O)N(C)[C@H]3C/C=C\CCN(C3=O)[C@@H](Cc3ccc(F)cc3C)C(=O)N(C)CC(=O)N[C@@H](CCc3cc(F)c(C(F)(F)F)c(F)c3)C(=O)N2C1 [PP1520] | A (a compound having 10 or more and less than 20 is denoted as A) | A (a compound having 10 or more and less than 20 is denoted as A)
67.9 nM | CCCCCC[C@H]1C(=O)N[C@@H]([C@@H](C)CC)C(=O)N(C)CC(=O)N(C)[C@H]2C/C=C\CCN(C2=O)[C@@H](Cc2ccc(C(F)(F)F)cc2)C(=O)N(C)CC(=O)N[C@@H](CCc2ccc(Cl)c(Cl)c2)C(=O)N2C[C@H](OCC)C[C@H]2C(=O)NC2(CCC2)C(=O)N(C)[C@@H](C(CC)CC)C(=O)N(C)[C@H](C(=O)N(C)C)CC(=O)N1C [PP1218] | A (a compound having 10 or more and less than 20 is denoted as A) | AA (a compound having 20 or more is denoted as AA)
2.3 nM | CCO[C@@H]1C[C@H]2C(=O)NC3(CCCC3)C(=O)N(C)[C@@H](C3CCCC3)C(=O)N(C)[C@H](C(=O)N(C)C)CC(=O)N(C)[C@@H](CC)C(=O)N[C@@H]([C@@H](C)CC)C(=O)N(C)CC(=O)N(C)[C@H]3CC[C@@H](C)CN(C3=O)[C@@H](Cc3ccc(C(F)(F)F)cc3)C(=O)N(C)CC(=O)N[C@@H](CCc3cc(F)c(C(F)(F)F)c(F)c3)C(=O)N2C1 [PP1370] | C (A compound having a KD ratio of 0.1 or more and less than 3 is denoted as C) | C (A compound having a KD ratio of 0.1 or more and less than 3 is denoted as C)
8.7 nM | CCO[C@@H]1C[C@H]2C(=O)NC3(CCCC3)C(=O)N(C)[C@@H](C3CCCC3)C(=O)N(C)[C@H](C(=O)N3CCOCC3)CC(=O)N(C)[C@@H](CC)C(=O)N[C@@H]([C@@H](C)CC)C(=O)N(C)CC(=O)N(C)[C@H]3C[C@H](C)C(C)CN(C3=O)[C@@H](Cc3ccc(C(F)(F)F)cc3)C(=O)N(C)CC(=O)N[C@@H](CCc3cc(F)c(C(F)(F)F)c(F)c3)C(=O)N2C1 (stereo partly drawn) [PP1348] | B (a compound having 3 or more and less than 10 is denoted as B) | B (a compound having 3 or more and less than 10 is denoted as B)
43.5 nM | CCO[C@@H]1C[C@H]2C(=O)NC3(CCC3)C(=O)N(C)[C@@H](C3CCCC3)C(=O)N(C)[C@H](C(=O)N3CCCC3)CC(=O)N(C)[C@@H](CC3CC3)C(=O)N[C@@H]([C@@H](C)CC)C(=O)N(C)CC(=O)N(C)[C@H]3C/C=C\CCN(C3=O)[C@@H](Cc3ccc(C)cc3)C(=O)N(C)CC(=O)N[C@@H](CCc3cc(F)c(C(F)(F)F)c(F)c3)C(=O)N2C1 [PP1409] | A (a compound having 10 or more and less than 20 is denoted as A) | A (a compound having 10 or more and less than 20 is denoted as A)
